Data from US11793782B2, “Therapeutic agents for neurodegenerative diseases” (priority 2017, dated 2023).

Columns and labels:
[1] = system: Npc1−/− mice; experiment: Coat condition of Npc1−/− mice; assay type: in vivo, mouse; conditions: 0.1 g/kg in chow from weaning, nine weeks of age
Excerpt: Separate groups of Npc1^-/- and Npc1^+/+ mice were left untreated, as controls.

[2] = system: Mucolipidosis Type IIIA (MLIIIA) patient fibroblasts; experiment: Lysosomal volume via LysoTracker, MLIIIA fibroblasts; assay type: cell-based, human; conditions: 1 mM, 6 days
[3] = system: Hexb−/− mouse (Sandhoff disease model); experiment: Lifespan of Sandhoff mouse; assay type: in vivo
Protocol: This study made use of a mouse model of Sandhoff disease, the Hexb^−/− mouse, as descrbed in Jeyakumar et al. (Jeyakumar, M. et al. (1999) Proc. Natl. Acad. Sci. USA 96: 6388-6393).
In FIG. 7A, acetyl-leucine-treated mice were treated with 0.1 g/kg acetyl-leucine from 3 weeks of age. The asterisks (*) indicates a p-value of <0.05 vs untreated Sandhoff mice. Data is average of n=6 mice per group. Without treatment, the median survival time of Sandhoff mice was 112 days. Treatment with acetyl-leucine (0.1 g/kg body weight since 3 weeks of age) increased the median lifespan to 120 days.

[4] = system: Hexb−/− mouse (Sandhoff disease model); experiment: Bar crossing test, Sandhoff mouse; assay type: in vivo; conditions: 0.1 g/kg body weight from 3 weeks of age
Excerpt: The bar crossing test is a method for assessing motor function in mice in which the mouse is placed hanging from the centre of a horizontal bar by its front limbs. A wild-type mouse with normal motor function will be able to engage its hind limbs and thereby move to one of the platforms at either end of the bar, and in doing so complete the test. An untreated Sandhoff mouse is able to complete the test up until around 11 weeks of age. After this point motor function and hind-limb mobility/engagement have deteriorated to the point to which the mouse cannot complete the test, and will drop from the bar onto the padded surface below. […] In FIG. 7 B, acetyl-leucine treatment of 0.1 g/kg body weight was provided from 3 weeks of age. The acetyl-leucine treated Sandhoff mice retained the ability to complete the test up to 13 weeks of age (inclusive). Data shown is the mean of 6 mice per group. […]

[5] = system: MSA-P patients; experiment: Case studies, multiple system atrophy Parkinson type (MSA-P) patients; assay type: in vivo, human
Excerpt: Medication was stopped. […] The patient evaluated after one month on acetyl-DL-leucine. […] Episodes of mental confusion completely disappeared. The patient's cognitive structure seemed much clearer and straighter. […] The patient's spouse supported continuing the medication.

[6] = MSA-P Patient 2, after 1 month of treatment
[7] = MSA-P Patient 2, after 1 month without treatment
[8] = MSA-P Patient 2, after 2 months without treatment

## CC(=O)NC(CC(C)C)C(=O)O (racemic) [acetyl-DL-leucine]
[1]
  Coat condition: smooth and glossy coat
[2]
  LysoTracker fluorescence relative to untreated disease fibroblasts: trend in reducing LysoTracker fluorescence
[3]; Sandhoff mice, 0.1 g/kg body weight since 3 weeks of age, untreated 112 days
  Median lifespan: 120 days
[3]; Sandhoff mouse, 0.1 g/kg from 3 weeks of age, p<0.05 vs untreated
  Lifespan: statistically significant increase in the lifespan
[4]; Sandhoff mice, untreated around 11 weeks
  Age up to which ability to complete the bar crossing test was retained: up to 13 weeks of age
[4]; Sandhoff mouse model
  Motor function in bar-crossing test: improved motor function and hind-limb mobility/engagement
[5]; MSA-P Patient 1, 5 g/day, after 3 weeks
  Clinical observation: no significant improvement of gait, reduction of falls or improved hypokinetic rigid-syndrome
[5]; MSA-P Patient 2, 5 g per day, after one month of treatment
  Clinical observation: subjective improvement of dizziness
[5]; [6]
  Coefficient of variation (temporal): 2.7
  Double stance: 25.6%
  Functional Gait Assessment: 24/30
  Max. speed: 214 cm/s
  Step cycle length: 120 cm
  Track width: 3.8 cm
  cadence: 109 steps/minute
  speed: 109 cm/s
[5]; [7]
  Coefficient of variation (temporal): 1.7
  Double stance: 22.5%
  Functional Gait Assessment: 25/30
  Max. speed: 196 cm/s
  Step cycle length: 126 cm
  Track width: 2.3 cm
  cadence: 109 steps/minute
  speed: 114 cm/s
[5]; [8]
  Coefficient of variation (temporal): 2.1
  Double stance: 26.7%
  Functional Gait Assessment: 22/30
  Max. speed: 177 cm/s
  Step cycle length: 107 cm
  Track width: 3.4 cm
  cadence: 106 steps/minute
  speed: 94 cm/s
[5]; MSA-P Patient 2, after two months without medication
  Symptoms without medication: worsening of general symptomatology
[5]; MSA-P Patient 3, 5 g per day, after one month
  Cognitive function (wife's report): significant improvement of cognitive function
[5]; MSA-P Patient 3, after one month
  Gait function: no improvement of gait function
